The results in this text go back to patent US11814367B2, “Inhibitors of glycogen synthase 1 (GYS1) and methods of use thereof” (Maze Therapeutics, Inc., priority 2021, dated 2023).

Experiment [1] concerns the target hGYS1 enzyme (recombinant hGYS1/GN1 protein) (Homo sapiens (Human), UniProt P13807). The experiment can be described thus: GYS1 coupled enzyme assay (PK/LDH). Format: biochemical. To be noted: hGYS1/GN1 50 nM, UDP-Glucose 0.8 mM, G6P 1 mM; geometric mean of at least 2 runs.
Experiment [2] concerns hGYS1 enzyme / glycogen synthesis in HeLa cells. The experiment can be described thus: GYS1 cell based assay (glycogen synthesis, Glucose-glo). Also on record: species or system human. The settings on record: Homo sapiens, HeLa, 24 h, 24 h incubation, 20 mM glucose, geometric mean of at least 2 runs. An outline of the steps:
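HeLa cells starved 24 h in medium containing only 1× Glutamax were plated onto compound in medium with 20 mM glucose (1% DMSO final) for 24 h, 37 °C, 5% CO2. Acid lysates were Tris-quenched, glucoamylase-digested (pH 5.3, 1 h, 37 °C) and read by Glucose-glo luminescence. IC50 came from Hill fits, as geometric mean of ≥2 runs.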

Experiment [3] deals with hGYS2 enzyme (recombinant hGYS2/GN1 protein) (Homo sapiens (Human), UniProt P54840). The experiment can be described thus: GYS2 coupled enzyme assay (PK/LDH). To be noted: geometric mean of at least 2 assay runs on separate days, read-out: Avg_IC50. Format: biochemical. In a few lines: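 hGYS2/GN1 200 nM; UDP-Glc 2 mM; glycogen 0.2%; G6P 2 mM; PEP 2 mM, NADH 0.6 mM, PK/LDH 20 U/mL. 50 mM Tris pH 7.5, MgCl2, KCl, BSA, TCEP, 2.5% DMSO. Kinetic A340, 10 min. IC50 = geomean of ≥2 runs.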
Sequence of hGYS2 enzyme (recombinant hGYS2/GN1 protein) (P54840 whole entry): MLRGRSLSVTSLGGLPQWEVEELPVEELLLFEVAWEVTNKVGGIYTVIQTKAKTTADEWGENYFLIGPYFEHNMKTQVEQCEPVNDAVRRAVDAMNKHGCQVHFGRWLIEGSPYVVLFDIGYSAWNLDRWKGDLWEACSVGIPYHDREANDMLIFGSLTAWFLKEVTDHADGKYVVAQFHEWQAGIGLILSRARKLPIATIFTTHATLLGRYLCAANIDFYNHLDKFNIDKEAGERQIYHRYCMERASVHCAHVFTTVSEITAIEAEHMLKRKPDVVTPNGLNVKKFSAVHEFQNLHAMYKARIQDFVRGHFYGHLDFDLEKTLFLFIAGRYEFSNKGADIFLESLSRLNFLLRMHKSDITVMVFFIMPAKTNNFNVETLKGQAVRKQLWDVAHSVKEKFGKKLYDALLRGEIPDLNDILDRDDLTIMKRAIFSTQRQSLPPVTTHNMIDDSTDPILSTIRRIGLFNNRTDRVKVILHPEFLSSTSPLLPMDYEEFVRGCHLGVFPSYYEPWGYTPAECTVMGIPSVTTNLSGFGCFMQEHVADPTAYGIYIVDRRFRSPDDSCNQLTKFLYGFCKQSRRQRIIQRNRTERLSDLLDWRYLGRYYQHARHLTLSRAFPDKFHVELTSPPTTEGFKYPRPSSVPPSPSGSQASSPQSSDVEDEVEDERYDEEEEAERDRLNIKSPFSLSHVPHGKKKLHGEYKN
Sequence of hGYS2 enzyme (recombinant hGYS2/GN1 protein) (P46976 whole entry partner): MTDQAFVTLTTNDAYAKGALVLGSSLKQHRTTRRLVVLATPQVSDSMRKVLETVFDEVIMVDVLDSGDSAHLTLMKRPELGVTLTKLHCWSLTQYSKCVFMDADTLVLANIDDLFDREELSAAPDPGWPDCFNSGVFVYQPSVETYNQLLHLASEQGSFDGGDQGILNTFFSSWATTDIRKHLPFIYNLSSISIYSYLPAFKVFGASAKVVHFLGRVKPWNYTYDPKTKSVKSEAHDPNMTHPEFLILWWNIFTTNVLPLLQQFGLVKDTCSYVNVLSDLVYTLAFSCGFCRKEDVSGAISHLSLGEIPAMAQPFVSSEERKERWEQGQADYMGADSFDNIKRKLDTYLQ

Sequence of hGYS1 enzyme (recombinant hGYS1/GN1 protein) (P13807 whole entry): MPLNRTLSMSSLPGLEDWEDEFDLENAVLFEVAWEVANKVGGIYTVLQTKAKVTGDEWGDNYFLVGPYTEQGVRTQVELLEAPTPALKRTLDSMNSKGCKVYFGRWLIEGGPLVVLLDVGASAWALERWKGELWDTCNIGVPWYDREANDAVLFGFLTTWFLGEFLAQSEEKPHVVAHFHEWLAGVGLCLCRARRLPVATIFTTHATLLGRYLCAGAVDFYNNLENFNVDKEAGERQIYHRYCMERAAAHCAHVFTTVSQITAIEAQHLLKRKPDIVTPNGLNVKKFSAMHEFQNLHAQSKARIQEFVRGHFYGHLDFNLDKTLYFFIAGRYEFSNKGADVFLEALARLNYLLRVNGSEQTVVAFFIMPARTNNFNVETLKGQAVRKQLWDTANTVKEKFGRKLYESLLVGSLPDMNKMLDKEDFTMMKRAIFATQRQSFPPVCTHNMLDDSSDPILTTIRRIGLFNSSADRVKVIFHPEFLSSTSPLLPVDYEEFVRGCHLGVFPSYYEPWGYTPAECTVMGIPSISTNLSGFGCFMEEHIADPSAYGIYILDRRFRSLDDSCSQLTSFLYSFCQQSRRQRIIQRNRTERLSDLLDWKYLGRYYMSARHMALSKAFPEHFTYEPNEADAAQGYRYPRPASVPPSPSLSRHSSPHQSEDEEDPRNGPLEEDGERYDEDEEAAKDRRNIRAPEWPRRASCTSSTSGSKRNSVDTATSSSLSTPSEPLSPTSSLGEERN
Sequence of hGYS1 enzyme (recombinant hGYS1/GN1 protein) (P46976 whole entry partner): as the sequence (P46976 whole entry partner) above

Regarding `CC(C)c1ccc([C@@H](NC(=O)[C@@H]2C[C@@H](F)CN2C(=O)Cc2nnc(C(F)F)o2)c2ccccc2)cc1F` [Compound 383, (2S,4R)-1-{2-[5-(difluoromethyl)-1,3,4-oxadiazol-2-yl]acetyl}-4-fluoro-N-[(S)-[3-fluoro-4-(propan-2-yl)phenyl](phenyl)methyl] pyrrolidine-2-carboxamide], the values for the IC50 in experiment [1], in experiment [2] and in experiment [3] were 0.027 µM, 0.41 µM and > 100 µM, respectively.
The like results for `Cn1c(=O)n(CC(=O)N2C[C@H](F)C[C@H]2C(=O)N[C@@H](c2ccccc2)c2ccc(C3(C)CC3)c(F)c2)c2ccccc21` [Compound 568, (2S,4R)-4-fluoro-N-[(S)-[3-fluoro-4-(1-methylcyclopropyl)phenyl](phenyl)methyl]-1-[2-(3-methyl-2-oxo-2,3-dihydro-1H-1,3-benzodiazol-1-yl)acetyl]pyrrolidine-2-carboxamide] were, in that order, 0.089 µM, 0.96 µM and 94.2 µM.
The like results for `CC(C)c1ccc([C@@H](NC(=O)[C@@H]2C[C@@H](F)CN2C(=O)Cc2ccc[nH]c2=O)c2ccccc2)nc1F` [Compound 793, (2S,4R)-4-fluoro-N-[(S)-[6-fluoro-5-(propan-2-yl)pyridin-2-yl](phenyl)methyl]-1-[2-(2-oxo-1,2-dihydropyridin-3-yl)acetyl]pyrrolidine-2-carboxamide] were, in that order, 0.012 µM, 0.58 µM and > 100 µM.
The like results for `CC1(c2ccc([C@@H](NC(=O)[C@@H]3C[C@@H](F)CN3C(=O)Cc3n[nH]c4ccccc34)c3ccccc3)nc2F)CC1` [Compound 588, (2S,4R)-4-fluoro-N-[(S)-[6-fluoro-5-(1-methylcyclopropyl)pyridin-2-yl] (phenyl)methyl]-1-[2-(1H-indazol-3-yl)acetyl]pyrrolidine-2-carboxamide] were, in that order, 0.036 µM, 0.48 µM and > 100 µM.
In the case of `CCn1ncc(NCC(=O)N2C[C@H](F)C[C@H]2C(=O)N[C@@H](c2ccccc2)c2ccc(C3CC3)c(F)c2)n1` [Compound 470, (2S,4R)-N-[(S)-(4-cyclopropyl-3-fluorophenyl)(phenyl)methyl]-1-{2-[(2-ethyl-2H-1,2,3-triazol-4-yl)amino]acetyl}-4-fluoropyrrolidine-2-carboxamide], the IC50 was 0.082 µM in experiment [1], 0.96 µM in experiment [2] and > 100 µM in experiment [3].
`Cn1c(CC(=O)N2C[C@H](F)C[C@H]2C(=O)N[C@@H](c2ccccc2)c2ccc(C3CC3)c(F)c2)cc2ccccc21` [Compound 462, (2S,4R)-N-[(S)-(4-cyclopropyl-3-fluorophenyl)(phenyl)methyl]-4-fluoro-1-[2-(1-methyl-1H-indol-2-yl)acetyl]pyrrolidine-2-carboxamide]: the values for the IC50 in experiment [1], in experiment [2] and in experiment [3] were 0.024 µM, 0.64 µM and > 100 µM, respectively.
The like results for `CC1(c2ccc([C@@H](NC(=O)[C@@H]3C[C@@H](F)CN3C(=O)Cc3cnn[nH]3)c3ccccc3)cc2F)CCC1` [Compound 681, (2S,4R)-4-fluoro-N-[(S)-[3-fluoro-4-(1-methylcyclobutyl)phenyl](phenyl)methyl]-1-[2-(1H-1,2,3-triazol-5-yl)acetyl]pyrrolidine-2-carboxamide] were, in that order, 0.03 µM, 0.43 µM and > 100 µM.
On to `O=C(N[C@@H](c1ccccc1)c1ccc(C2CC(F)(F)C2)cn1)[C@@H]1C[C@@H](F)CN1C(=O)CNC(=O)N1CC(F)(F)C1` [Compound 538, (2S,4R)-1-{2-[(3,3-difluoroazetidine-1-carbonyl)amino]acetyl}-N-[(S)-[5-(3,3-difluorocyclobutyl)pyridin-2-yl](phenyl)methyl]-4-fluoropyrrolidine-2-carboxamide], for which the IC50 is 0.048 µM in experiment [1], 1.22 µM in experiment [2] and > 100 µM in experiment [3].
The like results for `CC(C)c1ccc(C(NC(=O)[C@@H]2C[C@@H](F)CN2C(=O)Cc2cnn[nH]2)c2ccn3cncc3c2)nc1F` (single isomer, unassigned) [Compound 631, (2S,4R)-4-fluoro-N-[(S) or (R)-[6-fluoro-5-(propan-2-yl)pyridin-2-yl]({imidazo[1,5-a]pyridin-7-yl})methyl]-1-[2-(1H-1,2,3-triazol-5-yl)acetyl]pyrrolidine-2-carboxamide] were, in that order, 0.176 µM, 13.6 µM and > 100 µM.
The like results for `CC(C)c1ccc([C@@H](NC(=O)[C@@H]2C[C@@H](F)CN2C(=O)Cn2nncc2C(F)(F)F)c2ccccc2)cc1F` [Compound 322, (2S,4R)-4-fluoro-N—((S)-(3-fluoro-4-isopropylphenyl)(phenyl)methyl)-1-(2-(5-(trifluoromethyl)-1H-1,2,3-triazol-1-yl)acetyl)pyrrolidine-2-carboxamide] were, in that order, 0.013 µM, 0.29 µM and > 100 µM.
The like results for `O=C(N[C@@H](c1ccccc1)c1ccc(C2CC(F)(F)C2)c(F)n1)[C@@H]1C[C@@H](F)CN1C(=O)Cn1nnnc1C(F)F` [Compound 513, (2S,4R)-N-[(S)-[5-(3,3-difluorocyclobutyl)-6-fluoropyridin-2-yl](phenyl)methyl]-1-{2-[5-(difluoromethyl)-1H-1,2,3,4-tetrazol-1-yl]acetyl}-4-fluoropyrrolidine-2-carboxamide] were, in that order, 0.014 µM, 0.22 µM and > 100 µM.
`CC1(c2ccc([C@@H](NC(=O)[C@@H]3C[C@@H](F)CN3C(=O)Cn3c(=O)[nH]c4ccccc43)c3ccccc3)cc2F)CC1` [Compound 570, (2S,4R)-4-fluoro-N-[(S)-[3-fluoro-4-(1-methylcyclopropyl)phenyl](phenyl)methyl]-1-[2-(2-oxo-2,3-dihydro-1H-1,3-benzodiazol-1-yl)acetyl]pyrrolidine-2-carboxamide]: the IC50 is 0.082 µM in experiment [1], 1.22 µM in experiment [2] and > 100 µM in experiment [3].
The like results for `CC1(c2ccc([C@@H](NC(=O)[C@@H]3C[C@@H](F)CN3C(=O)CN3CC(=O)NCC3=O)c3ccccc3)cc2F)CC1` [Compound 572, (2S,4R)-1-[2-(2,5-dioxopiperazin-1-yl)acetyl]-4-fluoro-N-[(S)-[3-fluoro-4-(1-methylcyclopropyl)phenyl](phenyl)methyl]pyrrolidine-2-carboxamide] were, in that order, 0.205 µM, 3.6 µM and > 100 µM.
The like results for `O=C(N[C@@H](c1ccccc1)c1ccc(C2CC2)c(F)c1)[C@@H]1C[C@@H](F)CN1C(=O)Cc1ccc2ncnn2c1` [Compound 478, (2S,4R)-N-[(S)-(4-cyclopropyl-3-fluorophenyl)(phenyl)methyl]-4-fluoro-1-(2-{[1,2,4]triazolo[1,5-a]pyridin-6-yl}acetyl) pyrrolidine-2-carboxamide] were, in that order, 0.069 µM, 1.19 µM and 68.2 µM.
In the case of `CCN(CC)c1cnn(CC(=O)N2C[C@H](F)C[C@H]2C(=O)N[C@@H](c2ccccc2)c2ccc(C3CC3)c(F)n2)n1` [Compound 319, (2S,4R)-N-[(S)-(5-cyclopropyl-6-fluoropyridin-2-yl)(phenyl)methyl]-1-{2-[4-(diethylamino)-2H-1,2,3-triazol-2-yl]acetyl}-4-fluoropyrrolidine-2-carboxamide], the IC50 is 0.007 µM in experiment [1], 0.24 µM in experiment [2] and > 100 µM in experiment [3].
The like results for `Cc1ccc2cc(CC(=O)N3C[C@H](F)C[C@H]3C(=O)N[C@@H](c3ccccc3)c3ccc(C4CC4)c(F)c3)ccc2n1` [Compound 480, (2S,4R)-N-[(S)-(4-cyclopropyl-3-fluorophenyl)(phenyl)methyl]-4-fluoro-1-[2-(2-methylquinolin-6-yl)acetyl]pyrrolidine-2-carboxamide] were, in that order, 0.079 µM, 1.12 µM and > 100 µM.
The like results for `CC(C)c1ccc([C@@H](NC(=O)[C@@H]2C[C@@H](F)CN2C(=O)Cc2[nH]nnc2N2CCNCC2)c2ccccc2)cc1F` [Compound 369, (2S,4R)-4-fluoro-N-[(S)-[3-fluoro-4-(propan-2-yl)phenyl](phenyl)methyl]-1-{2-[4-(piperazin-1-yl)-1H-1,2,3-triazol-5-yl]acetyl}pyrrolidine-2-carboxamide] were, in that order, 0.537 µM, > 30 µM and > 100 µM.
The like results for `O=C(N[C@@H](c1ccccc1)c1ccc(C2CC2)c(F)n1)[C@@H]1C[C@@H](F)CN1C(=O)Cn1ncc(N2CCC2)n1` [Compound 317, (2S,4R)-1-{2-[4-(azetidin-1-yl)-2H-1,2,3-triazol-2-yl]acetyl}-N-[(S)-(5-cyclopropyl-6-fluoropyridin-2-yl)(phenyl)methyl]-4-fluoropyrrolidine-2-carboxamide] were, in that order, 0.017 µM, 0.39 µM and > 100 µM.
As to `O=C(N[C@@H](c1ccccc1)c1ccc(C2CC2)c(F)n1)[C@@H]1C[C@@H](F)CN1C(=O)Cc1ncco1` [Compound 312, (2S,4R)-N-[(S)-(5-cyclopropyl-6-fluoropyridin-2-yl)(phenyl)methyl]-4-fluoro-1-[2-(1,3-oxazol-2-yl)acetyl]pyrrolidine-2-carboxamide], the IC50 in experiment [1] is 0.097 µM; in experiment [2], 0.83 µM; in experiment [3] it was > 100 µM.
